Test results published in patent US20240417412A1, “HETEROCYCLIC COMPOUNDS AND METHODS OF USE” (AMGEN INC., priority 2022, published 2024).
Read-outs that look alike come from different tables or passages of the source.

Columns and labels:
p-ERK (AsPC-1 cells) = assay: Phospho-ERK1/2 MSD Assay; assay type: cell-based
Description: Sixteen hours prior to compound treatment, AsPC-1 cells were seeded in 96-well cell culture plates at a density of 25,000 cells/well and incubated at 37° C., 5% CO2. A compound dose-response titration was diluted in growth media, added to appropriate wells of a cell culture plate, and then incubated at 37° C., 5% CO2 for 2 hours. […] Phosphorylation of ERK1/2 in compound-treated lysates was assayed using Phospho-ERK1/2 Whole Cell Lysate kits (Meso Scale Discovery K151DWD) according to the manufacturer's protocol. Assay plates were read on a Meso Scale Discovery Sector Imager 6000, and data were analyzed using a 4-parameter logistic model to calculate IC50 values.

KRAS G12D [1] = molecular target: KRAS G12D (Homo sapiens, UniProt P01116, C118A/G12D); assay: KRAS G12D Coupled Nucleotide Exchange Assay; assay type: biochemical; conditions: GDP-bound KRAS G12D/C118A, 2 hours pre-incubation, SOS-mediated nucleotide exchange, AlphaScreen
Description: The assay plates were then read on a PerkinElmer EnVision Multilabel Reader, using AlphaScreen® technology, and data were analyzed using a 4-parameter logistic model to calculate IC50 values.

KRAS G12D [2] = molecular target: KRAS G12D (Homo sapiens, UniProt P01116, G12D); assay: KRAS G12D TR-FRET Assay; conditions: His-tagged KRAS G12D, biotinylated KRPep-2d, read-out: KRAS G12D Binding IC50
Description: The plate was incubated for 30 minutes at room temperature. Biotinylated KRPep-2d substrate (Amgen) was diluted to 20 nM in Assay Buffer and 2 uL was added to all wells and incubated for 1 hour at room temperature. Detection Reagent (0.4 nM LANCE Eu-W1024 Anti-6×His (Perkin Elmer AD0401), 5 nM streptavidin-d2 (Cisbio 610SADLA)) was prepared in Assay Buffer, then 4 μL was added to the plate and incubated for 1 hour at room temperature.

[3] = Homo sapiens, ASPC1, 2 h, read-out: 2 h p-ERK (AsPC-1 cells), IC50 (μM), AsPC-1 cells, 2 hours compound treatment
[4] = read-out: 2 h p-ERK (AsPC-1 cells), IC50, AsPC-1 cells, 2 hours compound treatment

KRAS G12D (Homo sapiens, UniProt P01116, G12D), sequence (P01116 1-188 isoform P01116-2 G12D): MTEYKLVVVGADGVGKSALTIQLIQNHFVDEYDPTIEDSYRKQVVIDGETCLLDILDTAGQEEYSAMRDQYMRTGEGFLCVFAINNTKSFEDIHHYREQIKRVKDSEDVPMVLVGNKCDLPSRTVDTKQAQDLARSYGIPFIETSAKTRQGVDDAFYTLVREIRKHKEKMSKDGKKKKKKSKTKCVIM
KRAS G12D (Homo sapiens, UniProt P01116, C118A/G12D), sequence (P01116 1-169 isoform P01116-2 G12D/C118A): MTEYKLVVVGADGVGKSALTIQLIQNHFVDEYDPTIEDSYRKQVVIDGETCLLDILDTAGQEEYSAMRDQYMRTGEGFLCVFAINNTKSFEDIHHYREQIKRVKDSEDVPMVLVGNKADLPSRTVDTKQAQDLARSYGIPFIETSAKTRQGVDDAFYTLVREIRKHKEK

Row | Structure (SMILES) | IC50 (p-ERK (AsPC-1 cells); [3]) | IC50 (KRAS G12D [1]) | IC50 (KRAS G12D [2]) | IC50 (p-ERK (AsPC-1 cells); [4])
1 | CCc1c(F)ccc2cc(O)cc(-c3ncc4c(N5CC(O)CC6(CC6)C5)nc(OC[C@@]56CCCN5C[C@H](F)C6)nc4c3F)c12 (single isomer, unassigned) [Example 3] | 0.034 µM | 2 nM | 1 nM | 
2 | CCc1c(F)ccc2cc(O)cc(-c3ncc4c(N5CCCC6(CNC(=O)C6)C5)nc(OC[C@@]56CCCN5C[C@H](F)C6)nc4c3F)c12 (single isomer, unassigned) [Example 8] | 0.252 µM | 4 nM | 2 nM | 
3 | CCc1c(F)ccc2cc(O)cc(-c3ncc4c(N5CCCC6(CC(=O)N6)C5)nc(OC[C@@]56CCCN5C[C@H](F)C6)nc4c3F)c12 (single isomer, unassigned) [Example 9] |  | 5 nM | 2 nM | 1.99 µM
4 | CCc1c(F)ccc2cc(O)cc(-c3ncc4c(N5CCCC6(CC(=O)N6)C5)nc(OC[C@@]56CCCN5C[C@H](F)C6)nc4c3F)c12 (single isomer, unassigned) [Example 10] |  | 2 nM | 1 nM | 0.044 µM
5 | Oc1cc(-c2ncc3c(N4CCCC5(CC(O)C5)C4)nc(OC[C@@]45CCCN4C[C@H](F)C5)nc3c2F)c2c(F)c(F)ccc2c1 (single isomer, unassigned) [Example 11] | 0.119 µM | 2 nM | 2 nM | 
6 | Oc1cc(-c2ncc3c(N4CCCC5(CC(O)C5)C4)nc(OC[C@@]45CCCN4C[C@H](F)C5)nc3c2F)c2c(F)c(F)ccc2c1 (single isomer, unassigned) [Example 12] |  | 2 nM | 2 nM | 0.121 µM
7 | CCc1cccc2cc(O)cc(-c3ncc4c(N5CCCC6(CC(O)C6)C5)nc(OC[C@@]56CCCN5C[C@H](F)C6)nc4c3F)c12 (single isomer, unassigned) [Example 13] | 0.022 µM | 1 nM | 2 nM | 
8 | Oc1cc(Cl)c(C2CC2)c(-c2ncc3c(N4CCCC5(CC(O)C5)C4)nc(OC[C@@]45CCCN4C[C@H](F)C5)nc3c2F)c1 (single isomer, unassigned) [Example 14] | 0.164 µM | 1 nM | 1 nM | 
9 | C#Cc1c(F)ccc2cc(O)cc(-c3ncc4c(N5CCCC6(CNC(=O)O6)C5)nc(OC[C@@]56CCCN5C[C@H](F)C6)nc4c3F)c12 (single isomer, unassigned) [Example 17] | 0.123 µM | 1 nM | 1 nM | 
10 | O=C1NCC2(CCCN(c3nc(OC[C@@]45CCCN4C[C@H](F)C5)nc4c(F)c(-c5cc(O)cc6ccc(F)c(F)c56)ncc34)C2)O1 (single isomer, unassigned) [Example 18] | 0.31 µM | 1 nM | 1 nM | 
11 | CCc1c(F)ccc2cc(O)cc(-c3ncc4c(N5CCCC6(CCO6)C5)nc(OC[C@@]56CCCN5C[C@H](F)C6)nc4c3F)c12 (single isomer, unassigned) [Example 21] |  |  |  | 0.003 µM
12 | CCc1c(F)ccc2cc(O)cc(-c3ncc4c(N5CCCC6(CCO6)C5)nc(OC[C@@]56CCCN5C[C@H](F)C6)nc4c3F)c12 (single isomer, unassigned) [Example 22] |  |  |  | 0.252 µM
13 | CCc1cccc2cc(O)cc(-c3ncc4c(N5CCCC6(CCO6)C5)nc(OC[C@@]56CCCN5C[C@H](F)C6)nc4c3F)c12 (single isomer, unassigned) [Example 23] | 0.011 µM | 3 nM | 2 nM | 
14 | Oc1cc(-c2ncc3c(N4CCCC5(CCO5)C4)nc(OC[C@@]45CCCN4C[C@H](F)C5)nc3c2F)c2c(F)c(F)ccc2c1 (single isomer, unassigned) [Example 24] | 0.009 µM | 2 nM | 1 nM | 
15 | C#Cc1c(F)ccc2cc(O)cc(-c3ncc4c(N5CCCC6(CCO6)C5)nc(OC[C@@]56CCCN5C[C@H](F)C6)nc4c3F)c12 (single isomer, unassigned) [Example 25] | 0.043 µM | 1 nM | 1 nM | 
16 | CCc1c(F)ccc2cccc(-c3ncc4c(N5CCCC6(CNC6=O)C5)nc(OC[C@@]56CCCN5C[C@H](F)C6)nc4c3F)c12 (stereo partly drawn) [Example 32, 6-(7-(8-Ethyl-7-fluoronaphthalen-1-yl)-8-fluoro-2-(((2R,7aS)-2-fluorotetrahydro-1H-pyrrolizin-7a(5H)-yl)methoxy)pyrido[4,3-d]pyrimidin-4-yl)-2,6-diazaspiro[3.5]nonan-1-one] |  | 5 nM | 4 nM | 

Other lines, results leading:

Row | IC50 (p-ERK (AsPC-1 cells); [3]) | IC50 (KRAS G12D [1]) | IC50 (KRAS G12D [2]) | IC50 (p-ERK (AsPC-1 cells); [4]) | Structure (SMILES)
17 |  | 12 nM | 9 nM | 2.19 µM | CCc1c(F)ccc2cc(O)cc(-c3ncc4c(N5CCCC6(CCS(=O)(=O)C6)C5)nc(OC[C@@]56CCCN5C[C@H](F)C6)nc4c3F)c12 (single isomer, unassigned) [Example 34]
18 |  | 3 nM | 2 nM | 0.06 µM | CCc1c(F)ccc2cc(O)cc(-c3ncc4c(N5CCCC6(CCS(=O)(=O)C6)C5)nc(OC[C@@]56CCCN5C[C@H](F)C6)nc4c3F)c12 (single isomer, unassigned) [Example 35]
19 | 1.11 µM | 2 nM | 2 nM |  | C#Cc1c(F)ccc2cc(O)cc(-c3ncc4c(N5CCCC6(CCS(=O)(=O)C6)C5)nc(OC[C@@]56CCCN5C[C@H](F)C6)nc4c3F)c12 (single isomer, unassigned) [Example 36]
20 | 0.161 µM | 5 nM | 3 nM |  | CCc1c(F)ccc2cc(O)cc(-c3ncc4c(N5CCCC6(CNC6=O)C5)nc(OC[C@@]56CCCN5C[C@H](F)C6)nc4c3F)c12 (single isomer, unassigned) [Example 45]
21 | 0.576 µM | 13 nM | 7 nM |  | CCc1c(F)ccc2cc(O)cc(-c3ncc4c(N5CCCC6(CCC6O)C5)nc(OC[C@@]56CCCN5C[C@H](F)C6)nc4c3F)c12 (single isomer, unassigned) [Example 49]
22 |  |  |  | 0.008 µM | CCc1c(F)ccc2cc(O)cc(-c3ncc4c(N5CCCC6(CC(O)C6)C5)nc(OC[C@@]56CCCN5C[C@H](F)C6)nc4c3F)c12 (single isomer, unassigned) [Example 54]
23 |  |  |  | 0.078 µM | CCc1c(F)ccc2cc(O)cc(-c3ncc4c(N5CCCC6(CC(O)C6)C5)nc(OC[C@@]56CCCN5C[C@H](F)C6)nc4c3F)c12 (single isomer, unassigned) [Example 55]
24 |  | 6 nM | 4 nM | 0.343 µM | CCc1c(F)ccc2cc(O)cc(-c3ncc4c(N5CCCC6(C5)CC(C)(O)C6)nc(OC[C@@]56CCCN5C[C@H](F)C6)nc4c3F)c12 (single isomer, unassigned) [Example 56]
25 |  | 10 nM | 6 nM | 0.131 µM | CCc1c(F)ccc2cc(O)cc(-c3ncc4c(N5CCCC6(C5)CC(C)(O)C6)nc(OC[C@@]56CCCN5C[C@H](F)C6)nc4c3F)c12 (single isomer, unassigned) [Example 57]
26 | 0.003 µM | 1 nM | 1 nM |  | Oc1cc(-c2ncc3c(N4CCC[C@]5(CCO5)C4)nc(OC[C@@]45CCCN4C[C@H](F)C5)nc3c2F)c2c(Cl)c(F)ccc2c1 (single isomer, unassigned) [Example 58]
27 | 0.006 µM | 2 nM | 3 nM |  | Oc1cc(-c2ncc3c(N4CCCC5(CCO5)C4)nc(OC[C@@]45CCCN4C[C@H](F)C5)nc3c2F)c2c(Cl)cccc2c1 (single isomer, unassigned) [Example 59]
28 |  | 33 nM | 31 nM |  | CCc1c(F)ccc2cc(O)cc(-c3ncc4c(N5CCCC6(CNC6)C5)nc(OC[C@@]56CCCN5C[C@H](F)C6)nc4c3F)c12 [Example 38, 5-Ethyl-6-fluoro-4-(8-fluoro-2-(((2R,7aS)-2-fluorotetrahydro-1H-pyrrolizin-7a(5H)-yl)methoxy)-4-(2,6-diazaspiro[3.5]nonan-6-yl)pyrido[4,3-d]pyrimidin-7-yl)naphthalen-2-ol]
29 |  | 8 nM | 12 nM |  | CCc1c(F)ccc2cc(O)cc(-c3ncc4c(N5CCCC6(CCS6(=O)=O)C5)nc(OC[C@@]56CCCN5C[C@H](F)C6)nc4c3F)c12 (some centres unmarked) [Example 43]
30 |  | 24 nM | 51 nM |  | CCc1c(F)ccc2cc(O)cc(-c3ncc4c(N5CCCC6(CCNC6=O)C5)nc(OC[C@@]56CCCN5C[C@H](F)C6)nc4c3F)c12 (stereo partly drawn) [Example 47, 7-(7-(8-Ethyl-7-fluoro-3-hydroxynaphthalen-1-yl)-8-fluoro-2-(((2R,7aS)-2-fluorotetrahydro-1H-pyrrolizin-7a(5H)-yl)methoxy)pyrido[4,3-d]pyrimidin-4-yl)-2,7-diazaspir[4.5]decan-1-one]
31 |  | 6 nM | 6 nM |  | CCc1c(F)ccc2cc(O)cc(-c3ncc4c(N5CCCC6(C5)CN(S(C)(=O)=O)C6)nc(OC[C@@]56CCCN5C[C@H](F)C6)nc4c3F)c12 [Example 52, 5-Ethyl-6-fluoro-4-(8-fluoro-2-(((2R,7aS)-2-fluorotetrahydro-1H-pyrrolizin-7a(5H)-yl)methoxy)-4-(2-(methylsulfonyl)-2,6-diazaspiro[3.5]nonan-6-yl)pyrido[4,3-d]pyrimidin-7-yl)naphthalen-2-ol]
